Measurements as given in patent US9290710B2, “Synergistic antimicrobial composition” (Dow Global Technologies LLC, priority 2009, dated 2016).

Columns and labels:
[1] = tested on: oil field isolated anaerobic SRB consortium; assay: Biocidal efficacy of THPS, DXN and THPS/DXN against SRB (99.99% reduction in 24 hours); assay type: cell-based, Sulfate Reducing Bacteria (SRB); details: alone or in THPS/DXN blend, 40° C., 10^6 to 10^7 CFU/mL
Method: Inside an anaerobic chamber (Bactron III), a deaerated sterile salt solution (3.1183 g of NaCl, 1.3082 mg of NaHCO3, 47.70 mg of KCl, 72.00 mg of CaCl2, 54.49 mg of MgSO4, 172.28 mg of Na2SO4, 43.92 mg of Na2CO3 in 1 L water) was contaminated with an oil field isolated anaerobic SRB consortium at final bacterial concentrations of 10^6 to 10^7 CFU/mL. The aliquots of this contaminated water were then treated with THPS, DXN, or the THPS/DXN combinations at different active concentration levels. After the mixtures were incubated at 40° C. for 24 hour, the viable bacterial number were enumerated using a serial dilution method and the biocidal efficacy was determined by the biocide dosage required for 99.99% bacterial reduction in 24 hours. Synergy Index was then calculated. Table 3 summarizes the efficacy of each biocide and their blends, and the Synergy Index of each combination.
(§1) A Synergy Index less than 1 indicates synergy.

[2] = tested on: oil field isolated anaerobic consortium, mainly SRB; assay: Biocidal efficacy (MBC, complete kill) of THPS, HHT and THPS/HHT against SRB, 40° C., 24 hour; assay type: cell-based, Sulfate Reducing Bacteria (SRB); details: alone or in THPS/HHT blend, 10^6 to 10^7 CFU/mL
Method: Inside an anaerobic chamber (Bactron anaerobic chamber), a deaerated sterile salt solution (3.1183 g of NaCl, 1.3082 mg of NaHCO3, 47.70 mg of KCl, 72.00 mg of CaCl2, 54.49 mg of MgSO4, 172.28 mg of Na2SO4, 43.92 mg of Na2CO3 in 1 L water) was contaminated with an oil field isolated anaerobic consortium, mainly SRB, at final bacterial concentrations of 10^6 to 10^7 CFU/mL. The aliquots of this contaminated water were then treated with THPS and hexahydro-1,3,5-tris(2-hydroxyethyl)-s-triazine (HHT), or the THPS/HHT combination at different active concentration levels. […] Table 1 summarizes the efficacy of each biocide and their blend, and the Synergy Index*^1 of each combination. *^1Synergy Index=Ca/CA+Cb/CB
• Ca: Concentration of biocide A required to achieve a complete bacterial kill when used in combination with Biocide B • CA: Concentration of biocide A required to achieve a complete bacterial kill when used alone • Cb: Concentration of biocide B required to achieve a complete bacterial kill when used in combination with Biocide A • CB: Concentration of biocide B required to achieve a complete bacterial kill when used alone A Synergy Index less than 1 indicates synergy.

[3] = tested on: oilfield SRB consortium; assay: Biocidal efficacy of THPS/HHT against anaerobic bacteria in a high temperature and sulfide-rich environment; assay type: cell-based, Sulfate Reducing Bacteria (SRB); details: alone or in THPS/HHT blend, 80° C., 7 days, daily challenge of SRB and 10 ppm sulfide
Method: Inside an anaerobic chamber (BACTRON IV), biocides solutions were challenged with 10^4 to 10^5 CFU/mL of an oilfield SRB consortium and 10 ppm sulfide ion (added in the form of sodium sulfide). The biocide solutions were then incubated at 80° C. under anaerobic condition for 7 days, with daily challenge of the SRB consortium (10^4 to 10^5 CFU/mL) and sulfide ion (10 ppm). The biocidal efficacy was determined by selecting the lowest testing biocide dosage required for 99.999% or complete bacterial kill after both 2 hours and 7 days of heat, SRB and sulfide exposure. Synergy Index was then calculated. Table 2 summarizes the efficacy of each biocide and their blend, and the Synergy Index of each combination.
as §1

[4] = tested on: oil field isolated SRB consortium; assay: Biocidal efficacy (MBC, complete kill) of THPS, NaOPP and THPS/NaOPP against SRB; assay type: cell-based, Sulfate Reducing Bacteria (SRB); details: alone or in THPS/NaOPP blend, 40° C., 24 hours, 10^6 to 10^7 CFU/mL
Method: Inside an anaerobic chamber (Bactron anaerobic chamber), a deaerated sterile salt solution (3.1183 g of NaCl, 1.3082 mg of NaHCO3, 47.70 mg of KCl, 72.00 mg of CaCl2, 54.49 mg of MgSO4, 172.28 mg of Na2SO4, 43.92 mg of Na2CO3 in 1 L water) was contaminated with an oil field isolated SRB consortium, at final bacterial concentrations of 10^6 to 10^7 CFU/mL. The aliquots of this contaminated water were then treated with THPS, NaOPP, or the THPS/NaOPP combinations at different active concentration levels. After the mixtures were incubated at 40° C. for 24 hours, the viable bacteria in the aliquots were detected in culture medium. The biocidal efficacy was determined by minimum tested biocide concentration for a complete bacterial kill in the aliquots (MBC). Table 4 summarizes the efficacy of each biocide and their blends, and the Synergy Index of each combination.

[5] = tested on: oil field isolated anaerobic consortium, mainly SRB; assay: Biocidal efficacy of THPS, NaOPP and THPS/NaOPP against anaerobic bacteria (99.999% reduction); assay type: cell-based, Sulfate Reducing Bacteria (SRB); details: alone or in THPS/NaOPP blend, 40° C., 24 hour, 10^7 CFU/mL
Method: Inside an anaerobic chamber (Bactron anaerobic chamber), a deaerated sterile salt solution (3.1183 g of NaCl, 1.3082 mg of NaHCO3, 47.70 mg of KCl, 72.00 mg of CaCl2, 54.49 mg of MgSO4, 172.28 mg of Na2SO4, 43.92 mg of Na2CO3 in 1 L water) was contaminated with an oil field isolated anaerobic consortium, mainly SRB, at final bacterial concentrations of 10^7 CFU/mL. […] After the mixtures were incubated at 40° C. for 24 hour, the viable bacteria were enumerated using serial dilution method. The biocidal efficacy was determined by minimum tested biocide concentration for 99.999% bacterial reduction in the aliquots.

[6] = tested on: Psedomonas aeruginosa ATCC 10145 and Staphylococcus aureus ATCC 6538; assay: Biocidal efficacy of THPS, NaOPP and THPS/NaOPP against aerobic bacteria (99.999% reduction); assay type: cell-based; details: alone or in THPS/NaOPP blend, PBS buffer (pH7), 37° C., 24 hour
Method: A PBS buffer (pH7) was contaminated with Psedomonas aeruginosa ATCC 10145 and Staphylococcus aureus ATCC 6538 at final bacterial concentration of −10^6 CFU/ml. […] After the mixtures were incubated at 37° C. for 24 hour, the viable bacteria were enumerated using serial dilution method. The biocidal efficacy was determined by minimum tested biocide concentration for 99.999% bacterial reduction in the aliquots.

CC(=O)OC1CC(C)OC(C)O1 (stereo not drawn) [DXN, 2,6-dimethyl-1,3-dioxan-4-yl acetate]
Dosage required for 99.99% bacterial reduction, DXN ([1]; DXN): 330.9 active ppm

OCCN1CN(CCO)CN(CCO)C1 [HHT, hexahydro-1,3,5-tris(2-hydroxyethyl)-s-triazine]
Average MBC HHT ([2]; HHT concentration for complete bacteria kill): 79.0 active ppm
Dosage required for 99.999% or complete bacterial kill of both 2 h and 7 day heat, SRB, and sulfide exposure, HHT ([3]; HHT): 133.3 active ppm

[Na+].[O-]c1ccccc1-c1ccccc1 [NaOPP, sodium o-phenylphenylate]
Average MBC NaOPP ([4]; NaOPP concentration for complete bacterial kill): 333.3 active ppm
Concentration required for 99.999% bacterial reduction, NaOPP ([5]; NaOPP): 303.8 ppm active
Concentration required for 99.999% bacterial reduction, NaOPP ([6]; NaOPP): 202.5 ppm active

tetrakis(hydroxymethyl)phosphonium sulfate [THPS]
Average MBC THPS ([2]; THPS concentration for complete bacteria kill): 6.1 active ppm
Dosage required for 99.999% or complete bacterial kill of both 2 h and 7 day heat, SRB, and sulfide exposure, THPS ([3]; THPS): 88.9 active ppm
Dosage required for 99.99% bacterial reduction, THPS ([1]; THPS): 5.5 active ppm
Average MBC THPS ([4]; THPS concentration for complete bacterial kill): 7.9 active ppm
Concentration required for 99.999% bacterial reduction, THPS ([5]; THPS): 11.9 ppm active
Concentration required for 99.999% bacterial reduction, THPS ([6]; THPS): 26.7 ppm active
